Experimental data published in ChEMBL document CHEMBL5042556, “Lead Optimization to Advance Protease-Activated Receptor-1 Antagonists in Early Discovery” (J Med Chem, 2022).

Experiments:
[1] = molecular target: Voltage-gated inwardly rectifying potassium channel KCNH2 (Homo sapiens, UniProt Q12809); assay: Inhibition of [35S]MK-499 binding to hERG expressed in HEK293 cells; type: toxicity, cell-based
[2] = molecular target: T1, Proteinase-activated receptor 1 (Homo sapiens, UniProt P25116); assay: Antagonist activity at human PAR-1 expressed in HEK293 cells assessed as reduction in TRAP induced calcium signal at 3 uM by FLIPR analysis; type: functional, cell-based
T1 sequence (P25116 whole entry): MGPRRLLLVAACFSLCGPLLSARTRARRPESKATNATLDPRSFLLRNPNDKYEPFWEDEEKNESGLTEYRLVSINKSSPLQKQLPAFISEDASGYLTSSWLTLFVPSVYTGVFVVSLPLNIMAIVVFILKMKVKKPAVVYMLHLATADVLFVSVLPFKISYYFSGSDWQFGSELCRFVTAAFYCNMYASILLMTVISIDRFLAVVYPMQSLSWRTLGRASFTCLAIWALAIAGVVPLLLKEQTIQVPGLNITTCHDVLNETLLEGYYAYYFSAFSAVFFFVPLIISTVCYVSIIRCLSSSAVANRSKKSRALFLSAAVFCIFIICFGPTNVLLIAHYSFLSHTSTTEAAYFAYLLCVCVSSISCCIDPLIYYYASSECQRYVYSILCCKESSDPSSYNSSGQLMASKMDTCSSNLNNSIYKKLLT

[3] = MRT in rat at 1 mg/kg, iv; type: ADME, organism-based; conditions: in vivo
[4] = MRT in cynomolgus monkey at 0.3 mg/kg, po; type: ADME, organism-based, Macaca fascicularis; conditions: in vivo
[5] = MRT in rat at 0.5 mg/kg, iv; type: ADME, organism-based; conditions: in vivo
[6] = MRT in cynomolgus monkey at 0.3 mg/kg, iv; type: ADME, organism-based, Macaca fascicularis; conditions: in vivo

Sequence of Voltage-gated inwardly rectifying potassium channel KCNH2 (Q12809 whole entry): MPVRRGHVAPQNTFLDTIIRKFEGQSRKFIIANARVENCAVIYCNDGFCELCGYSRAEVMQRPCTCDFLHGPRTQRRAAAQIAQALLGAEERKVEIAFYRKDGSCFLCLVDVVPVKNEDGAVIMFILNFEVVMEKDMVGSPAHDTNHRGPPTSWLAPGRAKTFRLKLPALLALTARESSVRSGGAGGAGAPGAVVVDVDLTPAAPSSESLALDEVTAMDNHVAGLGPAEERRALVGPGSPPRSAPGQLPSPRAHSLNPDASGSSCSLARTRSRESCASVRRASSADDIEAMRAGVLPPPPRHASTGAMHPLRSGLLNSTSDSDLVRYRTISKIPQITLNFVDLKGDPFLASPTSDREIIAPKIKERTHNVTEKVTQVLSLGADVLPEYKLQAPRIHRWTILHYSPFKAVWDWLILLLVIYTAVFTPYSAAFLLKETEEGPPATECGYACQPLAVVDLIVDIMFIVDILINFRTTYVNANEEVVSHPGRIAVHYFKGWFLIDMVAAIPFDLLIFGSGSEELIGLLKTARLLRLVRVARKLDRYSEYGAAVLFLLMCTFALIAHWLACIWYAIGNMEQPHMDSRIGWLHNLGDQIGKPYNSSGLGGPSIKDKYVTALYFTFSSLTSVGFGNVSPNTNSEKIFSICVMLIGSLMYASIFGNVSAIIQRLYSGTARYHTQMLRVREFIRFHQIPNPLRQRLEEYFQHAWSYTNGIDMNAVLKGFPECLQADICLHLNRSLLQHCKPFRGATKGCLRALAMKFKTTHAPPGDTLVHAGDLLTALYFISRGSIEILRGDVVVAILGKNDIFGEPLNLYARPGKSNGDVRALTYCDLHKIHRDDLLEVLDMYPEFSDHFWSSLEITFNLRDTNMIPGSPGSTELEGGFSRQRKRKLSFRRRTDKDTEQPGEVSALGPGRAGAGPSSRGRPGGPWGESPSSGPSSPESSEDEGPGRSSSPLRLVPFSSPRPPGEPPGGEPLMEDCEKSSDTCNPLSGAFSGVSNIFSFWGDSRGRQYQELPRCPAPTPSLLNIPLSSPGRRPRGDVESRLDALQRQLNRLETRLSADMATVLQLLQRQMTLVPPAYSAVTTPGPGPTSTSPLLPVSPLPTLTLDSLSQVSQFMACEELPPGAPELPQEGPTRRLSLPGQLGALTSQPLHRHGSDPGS

| SMILES | IC50 [2] [µM] | MRT [3] [h] | MRT [4] [h] | MRT [5] [h] | MRT [6] [h] | IC50 [1] [µM] |
| --- | --- | --- | --- | --- | --- | --- |
| CCOC(=O)N1C[C@H]2[C@H](C)[C@@H](C)[C@H](/C=C/c3ccc(-c4ccccc4C#N)cn3)[C@@H]3[C@@H](C)OC(=O)[C@@]32C1 | 0.004 | – | – | – | – | 1.6 |
| CNC(=O)N1C[C@H]2[C@H](C)[C@@H](C)[C@H](/C=C/c3ccc(-c4ccccc4C#N)cn3)[C@@H]3[C@@H](C)OC(=O)[C@@]32C1 | 0.007 | – | – | – | – | 50 |
| C[C@H]1[C@H](c2ccc(-c3cccc(F)c3)cn2)[C@@H]2[C@@H](C)OC(=O)[C@@H]2C[C@@H]1C | 0.003 | – | – | – | – | – |

Now from value to compound, other results behind:

| IC50 [2] [µM] | MRT [3] [h] | MRT [4] [h] | MRT [5] [h] | MRT [6] [h] | SMILES | IC50 [1] [µM] |
| --- | --- | --- | --- | --- | --- | --- |
| 0.014 | – | – | – | – | C[C@@H]1[C@@H](C)[C@@H]2CNC[C@@]23C(=O)O[C@H](C)[C@H]3[C@H]1/C=C/c1ccc(-c2ccccc2C#N)cn1 | 1.3 |
| – | 20 | > 20 | – | – | C[C@H]1OC(=O)[C@]2(O)CC(F)(F)[C@@H](C)[C@H](/C=C/c3ccc(-c4ccccc4C#N)cn3)[C@H]12 | – |
| 0.028 | – | – | – | – | C[C@@H]1[C@@H](C)[C@@H]2CN(C)C[C@@]23C(=O)O[C@H](C)[C@H]3[C@H]1/C=C/c1ccc(-c2ccccc2C#N)cn1 | 14.8 |
| 0.006 | – | – | 2.7 | 38.4 | C[C@H]1NC(=O)[C@]2(N)CC(F)(F)[C@@H](C)[C@H](/C=C/c3ccc(-c4ccccc4C#N)cn3)[C@H]12 | 33 |
